According to patent US8802597B2, “Herbicidal pyrimidines” (E I du Pont de Nemours and Company, priority 2003, dated 2014):
Like-named read-outs stand apart in the source and are kept apart here.

Legend:
Test in all cases: Test C pre/postemergence
Assay type in all cases: in vivo
[1] = system: Surinam grass (Brachiaria decumbens); conditions: Urochloa decumbens; for pest or weed control at 125 g/ha: 125 g ai/ha; for pest or weed control at 500 g/ha: 500 g ai/ha; for pest or weed control at 62 g/ha: 62 g ai/ha; for pest or weed control at 250 g/ha: 250 g ai/ha
In short: (§1)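 We sprayed seeded pots preemergence and 2–18 cm seedlings postemergence with test chemicals in a non-phytotoxic solvent mixture including surfactant. Greenhouse plants were visually compared with untreated controls at 12 to 14 days and scored 0 (no effect) to 100 (complete control).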

[2] = system: cocklebur (Xanthium strumarium); conditions: Xanthium strumarium; for pest or weed control at 62 g/ha: 62 g ai/ha; for pest or weed control at 125 g/ha: 125 g ai/ha; for pest or weed control at 250 g/ha: 250 g ai/ha; for pest or weed control at 500 g/ha: 500 g ai/ha
In short: as §1

[3] = system: common (oilseed) sunflower (Helianthus annuus); conditions: Helianthus annuus, pre-emergence, Preemergence, read-out: Plant response rating, Sunflower
In short: as §1

[4] = system: crabgrass (Digitaria sanguinalis); conditions: Digitaria sanguinalis; for pest or weed control at 62 g/ha: 62 g ai/ha; for pest or weed control at 125 g/ha: 125 g ai/ha; for pest or weed control at 250 g/ha: 250 g ai/ha; for pest or weed control at 500 g/ha: 500 g ai/ha
In short: as §1

[5] = system: giant foxtail (Setaria faberii); conditions: Setaria faberi; for pest or weed control at 125 g/ha: 125 g ai/ha; for pest or weed control at 500 g/ha: 500 g ai/ha; for pest or weed control at 62 g/ha: 62 g ai/ha; for pest or weed control at 250 g/ha: 250 g ai/ha
In short: as §1

[6] = system: johnsongrass (Sorghum halepense); conditions: Sorghum halepense; for pest or weed control at 62 g/ha: 62 g ai/ha; for pest or weed control at 125 g/ha: 125 g ai/ha; for pest or weed control at 250 g/ha: 250 g ai/ha; for pest or weed control at 500 g/ha: 500 g ai/ha
In short: as §1

kochia (Kochia scoparia) = conditions: Bassia scoparia, post-emergence, Postemergence, scale 0 to 100 (0 no effect, 100 complete control), read-out: Kochia plant response rating
In short: as §1

[7] = post-emergence, Postemergence, scale 0 to 100 (0 no effect, 100 complete control), read-out: Surinam Grass plant response rating
[8] = post-emergence, Postemergence, scale 0 to 100, read-out: Plant response rating, Surinam Grass
[9] = pre-emergence, Preemergence, scale 0 to 100, read-out: Plant response rating, Surinam Grass
[10] = post-emergence, Postemergence, scale 0 to 100 (0 no effect, 100 complete control), read-out: Cocklebur plant response rating
[11] = post-emergence, Postemergence, scale 0 to 100, read-out: Plant response rating, Cocklebur
[12] = pre-emergence, Preemergence, scale 0 to 100, read-out: Plant response rating, Cocklebur
[13] = post-emergence, Postemergence, scale 0 to 100 (0 no effect, 100 complete control), read-out: Crabgrass plant response rating
[14] = post-emergence, Postemergence, scale 0 to 100, read-out: Plant response rating, Crabgrass
[15] = pre-emergence, Preemergence, scale 0 to 100, read-out: Plant response rating, Crabgrass
[16] = post-emergence, Postemergence, scale 0 to 100 (0 no effect, 100 complete control), read-out: Foxtail, Giant plant response rating
[17] = post-emergence, Postemergence, scale 0 to 100, read-out: Plant response rating, Foxtail, Giant
[18] = pre-emergence, Preemergence, scale 0 to 100, read-out: Plant response rating, Foxtail, Giant
[19] = post-emergence, Postemergence, scale 0 to 100 (0 no effect, 100 complete control), read-out: Johnsongrass plant response rating
[20] = post-emergence, Postemergence, scale 0 to 100, read-out: Plant response rating, Johnsongrass
[21] = pre-emergence, Preemergence, scale 0 to 100, read-out: Plant response rating, Johnsongrass

SMILES: CCOC(=O)c1nc(C2CC2)nc(N)c1Br [Compound 1, ethyl 6-amino-5-bromo-2-cyclopropyl-4-pyrimidinecarboxylate]
- pest or weed control at 125 g/ha [1, 7]: 90%
- pest or weed control at 500 g/ha [1, 8]: 95%
- pest or weed control at 62 g/ha [1, 7]: 90%
- pest or weed control at 250 g/ha [1, 8]: 90%
- pest or weed control at 62 g/ha ([1]; pre-emergence, Preemergence, scale 0 to 100, 0 no effect, 100 complete control, read-out: Plant response rating, Surinam Grass): 0%
- pest or weed control at 125 g/ha [1, 9]: 35%
- pest or weed control at 250 g/ha [1, 9]: 90%
- pest or weed control at 500 g/ha [1, 9]: 90%
- pest or weed control at 62 g/ha [2, 10]: 90%
- pest or weed control at 125 g/ha [2, 10]: 100%
- pest or weed control at 250 g/ha [2, 11]: 100%
- pest or weed control at 500 g/ha [2, 11]: 100%
- pest or weed control at 62 g/ha ([2]; pre-emergence, Preemergence, scale 0 to 100, 0 no effect, 100 complete control, read-out: Plant response rating, Cocklebur): 90%
- pest or weed control at 125 g/ha [2, 12]: 100%
- pest or weed control at 250 g/ha [2, 12]: 100%
- pest or weed control at 500 g/ha [2, 12]: 100%
- pest or weed control at 62 g/ha ([3]; 62 g ai/ha, scale 0 to 100, 0 no effect, 100 complete control): 80%
- pest or weed control at 125 g/ha ([3]; 125 g ai/ha, scale 0 to 100): 100%
- pest or weed control at 250 g/ha ([3]; 250 g ai/ha, scale 0 to 100): 100%
- pest or weed control at 500 g/ha ([3]; 500 g ai/ha, scale 0 to 100): 100%
- pest or weed control at 62 g/ha [4, 13]: 30%
- pest or weed control at 125 g/ha [4, 13]: 85%
- pest or weed control at 250 g/ha [4, 14]: 85%
- pest or weed control at 500 g/ha [4, 14]: 90%
- pest or weed control at 62 g/ha ([4]; pre-emergence, Preemergence, scale 0 to 100, 0 no effect, 100 complete control, read-out: Plant response rating, Crabgrass): 10%
- pest or weed control at 125 g/ha [4, 15]: 60%
- pest or weed control at 250 g/ha [4, 15]: 90%
- pest or weed control at 500 g/ha [4, 15]: 95%
- pest or weed control at 125 g/ha [5, 16]: 65%
- pest or weed control at 500 g/ha [5, 17]: 90%
- pest or weed control at 62 g/ha [5, 16]: 40%
- pest or weed control at 250 g/ha [5, 17]: 80%
- pest or weed control at 62 g/ha ([5]; pre-emergence, Preemergence, scale 0 to 100, 0 no effect, 100 complete control, read-out: Plant response rating, Foxtail, Giant): 0%
- pest or weed control at 125 g/ha [5, 18]: 30%
- pest or weed control at 250 g/ha [5, 18]: 90%
- pest or weed control at 500 g/ha [5, 18]: 90%
- pest or weed control at 62 g/ha [6, 19]: 30%
- pest or weed control at 125 g/ha [6, 19]: 30%
- pest or weed control at 250 g/ha [6, 20]: 70%
- pest or weed control at 500 g/ha [6, 20]: 70%
- pest or weed control at 62 g/ha ([6]; pre-emergence, Preemergence, scale 0 to 100, 0 no effect, 100 complete control, read-out: Plant response rating, Johnsongrass): 0%
- pest or weed control at 125 g/ha [6, 21]: 30%
- pest or weed control at 250 g/ha [6, 21]: 80%
- pest or weed control at 500 g/ha [6, 21]: 90%
- pest or weed control at 62 g/ha (kochia (Kochia scoparia); 62 g ai/ha): 100%
- pest or weed control at 125 g/ha (kochia (Kochia scoparia); 125 g ai/ha): 100%
